Experiments:
Recombinant mTOR (FRAP1) = target: T1, Recombinant mTOR (FRAP1) (Homo sapiens, UniProt P42345); assay: mTOR in vitro kinase assay (TR-FRET, phosphorylation of GFP-4E-BP1); type: biochemical; settings: for inhibition at 1 µM: 1 uM compound, read-out: mTOR % Inhib@1 uM; for IC50: 8 μM ATP, 400 nM GFP-4E-BP1
T1 construct: purchased Invitrogen
In short: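 Recombinant human mTOR with GFP-4E-BP1 substrate at 400 nM and 8 μM ATP, 1 h at room temperature, then quenched with 10 mM EDTA plus 2 nM Tb-anti-p4E-BP1 (pThr46) for 1 h. TR-FRET 520/486 nm ratio fitted against inhibitor concentration by four-parameter sigmoidal regression.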

[1] = target: T2, PI3 Kinase alpha (p110 alpha/p85 alpha) (Homo sapiens, UniProt P42336); assay: PI3K TR-FRET assay (Transcreener ADP2); type: biochemical; settings: for IC50: PI3K alpha, 1 μM ATP, 50 μM PIP2
T2 construct: purchased Invitrogen
In short: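 p110α/p85α with diC8 PIP2 (50 μM) and 1 μM ATP in 50 mM HEPES pH 7.4, MgCl2, CHAPS, DTT, EGTA; 1 h at room temperature. ADP detected by Transcreener ADP2 TR-FRET (665/615 nm ratio), converted to product via ADP-ATP standard curve; IC50 from four-parameter fit of % inhibition.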

T2 sequence (P42336 whole entry): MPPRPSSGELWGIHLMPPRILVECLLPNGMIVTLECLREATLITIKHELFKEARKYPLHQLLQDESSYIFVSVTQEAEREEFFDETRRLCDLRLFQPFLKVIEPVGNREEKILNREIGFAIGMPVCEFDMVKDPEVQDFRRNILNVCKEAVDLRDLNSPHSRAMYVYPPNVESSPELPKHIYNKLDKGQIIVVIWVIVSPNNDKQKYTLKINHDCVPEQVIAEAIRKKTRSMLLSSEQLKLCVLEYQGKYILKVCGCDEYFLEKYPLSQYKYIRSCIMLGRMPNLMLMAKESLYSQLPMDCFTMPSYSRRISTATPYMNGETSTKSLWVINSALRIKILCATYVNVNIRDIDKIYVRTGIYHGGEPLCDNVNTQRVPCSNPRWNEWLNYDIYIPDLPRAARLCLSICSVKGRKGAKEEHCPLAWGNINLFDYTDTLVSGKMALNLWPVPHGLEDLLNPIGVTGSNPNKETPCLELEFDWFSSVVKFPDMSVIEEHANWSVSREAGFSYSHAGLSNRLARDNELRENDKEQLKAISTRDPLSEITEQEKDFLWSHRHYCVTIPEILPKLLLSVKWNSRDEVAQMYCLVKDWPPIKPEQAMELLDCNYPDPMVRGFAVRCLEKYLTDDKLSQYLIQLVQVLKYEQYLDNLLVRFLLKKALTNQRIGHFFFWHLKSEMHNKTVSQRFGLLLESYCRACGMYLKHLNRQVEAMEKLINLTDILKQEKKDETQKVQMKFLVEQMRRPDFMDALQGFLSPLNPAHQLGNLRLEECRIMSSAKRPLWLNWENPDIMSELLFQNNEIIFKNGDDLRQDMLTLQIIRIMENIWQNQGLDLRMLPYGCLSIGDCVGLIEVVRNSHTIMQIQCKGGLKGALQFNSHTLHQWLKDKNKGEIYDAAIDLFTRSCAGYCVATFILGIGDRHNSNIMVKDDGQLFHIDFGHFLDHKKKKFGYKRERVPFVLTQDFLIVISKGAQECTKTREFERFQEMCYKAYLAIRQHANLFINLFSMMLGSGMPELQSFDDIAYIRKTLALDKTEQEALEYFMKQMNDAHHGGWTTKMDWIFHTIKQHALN
T2 sequence (P27986 whole entry partner): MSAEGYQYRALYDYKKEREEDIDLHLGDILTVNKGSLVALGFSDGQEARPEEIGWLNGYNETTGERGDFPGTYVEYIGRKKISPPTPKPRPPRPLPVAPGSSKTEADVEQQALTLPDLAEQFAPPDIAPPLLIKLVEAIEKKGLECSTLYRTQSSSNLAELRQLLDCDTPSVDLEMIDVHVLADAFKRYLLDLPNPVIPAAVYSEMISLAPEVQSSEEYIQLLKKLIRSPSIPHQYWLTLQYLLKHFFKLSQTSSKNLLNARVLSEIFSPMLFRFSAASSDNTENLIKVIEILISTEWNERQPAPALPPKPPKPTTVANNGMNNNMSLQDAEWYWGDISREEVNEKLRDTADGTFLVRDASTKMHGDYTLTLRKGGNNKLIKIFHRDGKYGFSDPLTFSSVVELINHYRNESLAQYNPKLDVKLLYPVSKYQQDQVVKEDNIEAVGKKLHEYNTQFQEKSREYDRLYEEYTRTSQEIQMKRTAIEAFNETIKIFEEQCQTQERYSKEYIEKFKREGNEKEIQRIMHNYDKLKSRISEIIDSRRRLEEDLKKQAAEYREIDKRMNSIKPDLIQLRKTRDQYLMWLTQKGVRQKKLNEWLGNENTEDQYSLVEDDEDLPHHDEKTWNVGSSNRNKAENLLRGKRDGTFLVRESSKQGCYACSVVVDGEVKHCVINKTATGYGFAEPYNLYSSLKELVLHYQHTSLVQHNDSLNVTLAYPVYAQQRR
T1 sequence (P42345 1360-2549 limits assumed): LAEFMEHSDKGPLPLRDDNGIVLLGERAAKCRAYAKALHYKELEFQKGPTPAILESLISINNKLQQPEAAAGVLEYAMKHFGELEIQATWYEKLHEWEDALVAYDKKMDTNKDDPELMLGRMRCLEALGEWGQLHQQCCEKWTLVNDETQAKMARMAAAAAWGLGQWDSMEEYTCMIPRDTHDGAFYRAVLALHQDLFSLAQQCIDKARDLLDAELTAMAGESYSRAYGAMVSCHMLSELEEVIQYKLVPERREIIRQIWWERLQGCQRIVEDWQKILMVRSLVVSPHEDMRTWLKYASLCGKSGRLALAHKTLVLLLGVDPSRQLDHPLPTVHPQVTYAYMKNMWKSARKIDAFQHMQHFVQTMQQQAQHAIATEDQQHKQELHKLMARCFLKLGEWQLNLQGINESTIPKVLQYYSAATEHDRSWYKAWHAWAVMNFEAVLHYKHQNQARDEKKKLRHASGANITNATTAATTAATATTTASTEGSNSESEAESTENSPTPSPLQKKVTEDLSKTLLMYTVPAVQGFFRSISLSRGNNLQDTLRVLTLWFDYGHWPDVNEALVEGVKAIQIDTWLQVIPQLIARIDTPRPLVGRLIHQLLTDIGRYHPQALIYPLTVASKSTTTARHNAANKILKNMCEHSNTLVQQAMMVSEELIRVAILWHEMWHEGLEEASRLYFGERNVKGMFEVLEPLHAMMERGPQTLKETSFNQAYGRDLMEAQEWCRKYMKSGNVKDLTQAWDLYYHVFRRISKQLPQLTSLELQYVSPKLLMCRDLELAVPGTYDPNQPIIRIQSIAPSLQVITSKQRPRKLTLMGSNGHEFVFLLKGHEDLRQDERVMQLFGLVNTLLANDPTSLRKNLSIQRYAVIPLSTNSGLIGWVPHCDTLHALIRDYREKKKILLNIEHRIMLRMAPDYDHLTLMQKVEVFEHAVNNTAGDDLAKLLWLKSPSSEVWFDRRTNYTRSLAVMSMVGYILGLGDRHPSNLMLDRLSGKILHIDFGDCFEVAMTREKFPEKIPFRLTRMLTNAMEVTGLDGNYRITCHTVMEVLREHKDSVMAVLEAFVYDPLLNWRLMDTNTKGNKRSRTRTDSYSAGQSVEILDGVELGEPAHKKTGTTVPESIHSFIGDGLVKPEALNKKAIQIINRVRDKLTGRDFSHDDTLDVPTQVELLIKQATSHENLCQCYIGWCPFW

CS(=O)(=O)N1CCC(COc2nc(-c3cnc(N)s3)nc(N3CCOCC3)n2)C1 (centres unmarked) [Compound 10197, 5-(4-((1-(methylsulfonyl)pyrrolidin-3-yl)methoxy)-6-morpholino-1,3,5-triazin-2-yl)thiazol-2-amine]
inhibition at 1 µM (Recombinant mTOR (FRAP1)): < 50%
IC50 [1]: < 1000 nM

Cc1nc(N)sc1-c1nc(Oc2ccc(C(=O)N(C)C)cc2)nc(N2CCOCC2)n1 [Compound 10199, 4-((4-(2-amino-4-methylthiazol-5-yl)-6-morpholino-1,3,5-triazin-2-yl)oxy)-N,N-dimethylbenzamide]
inhibition at 1 µM (Recombinant mTOR (FRAP1)): < 50%
IC50 [1]: < 1000 nM

CN(C)C(=O)c1cccc(Nc2nc(-c3cnc(N)s3)nc(N3CCOCC3)n2)c1 [Compound 10200, 3-((4-(2-aminothiazol-5-yl)-6-morpholino-1,3,5-triazin-2-yl)amino)-N,N-dimethylbenzamide]
inhibition at 1 µM (Recombinant mTOR (FRAP1)): < 50%
IC50 [1]: < 1000 nM

NC(=O)c1ccc(Oc2nc(-c3cnc(N)s3)nc(N3CCOCC3)n2)cc1 [Compound 10201, 4-((4-(2-aminothiazol-5-yl)-6-morpholino-1,3,5-triazin-2-yl)oxy)benzamide]
inhibition at 1 µM (Recombinant mTOR (FRAP1)): < 50%
IC50 [1]: < 1000 nM

C[C@H]1COCCN1c1nc(O[C@H]2CC[C@H](C(=O)N(C)C)CC2)nc(-c2ccc3[nH]ncc3c2)n1 [Compound 10202, (1S,4r)-4-((4-(1H-indazol-5-yl)-6-((S)-3-methylmorpholino)-1,3,5-triazin-2-yl)oxy)-N,N-dimethylcyclohexane-1-carboxamide]
IC50 (Recombinant mTOR (FRAP1)): > 1000 nM
IC50 [1]: > 10000 nM

C[C@H]1COCCN1c1nc(O[C@H]2CC[C@H](C(=O)N(C)C)CC2)nc(-c2ccc(CO)cc2)n1 [Compound 10203, (1S,4r)-4-((4-(4-(hydroxymethyl)phenyl)-6-((S)-3-methylmorpholino)-1,3,5-triazin-2-yl)oxy)-N,N-dimethylcyclohexane-1-carboxamide]
IC50 (Recombinant mTOR (FRAP1)): > 3000 nM
inhibition at 1 µM ([1]; 1 uM compound, read-out: PI3K % Inhib@1 uM): < 50%

C[C@H]1COCCN1c1nc(Oc2ccc(C(=O)N(C)C)cc2F)nc(-c2cnc(N)nc2)n1 [Compound 10204, (S)-4-((4-(2-aminopyrimidin-5-yl)-6-(3-methylmorpholino)-1,3,5-triazin-2-yl)oxy)-3-fluoro-N,N-dimethylbenzamide]
IC50 (Recombinant mTOR (FRAP1)): < 1000 nM
IC50 [1]: < 1000 nM
